Test results from BindingDB's records for doi:10.1016/s0960-894x(03)00589-4 (University of California Irvine, 2003).

Assay: Inhibitory concentration required against protein phosphatase 1 using pNPP assay

`COC(=O)[C@@H](CCC(=O)N(C)C)NC(=O)[C@@H](C)[C@H](/C=C/C(C)=C/[C@H](C)[C@H](Cc1ccccc1)OC)NC(C)=O` [(R)-2-((4E,6E)-(2S,3S,8S,9S)-3-Acetylamino-9-methoxy-2,6,8-trimethyl-10-phenyl-deca-4,6-dienoylamino)-4-dimethylcarbamoyl-butyric acid methyl ester] and `CO[C@@H](Cc1ccccc1)[C@@H](C)/C=C(C)/C=C/[C@H](NC(C)=O)[C@H](C)C(=O)N[C@H](CCC(=O)N(C)C)C(=O)O` [(R)-2-((4E,6E)-(2S,3S,8S,9S)-3-Acetylamino-9-methoxy-2,6,8-trimethyl-10-phenyl-deca-4,6-dienoylamino)-4-dimethylcarbamoyl-butyric acid] cannot be ordered by IC50: over 100 µM for the first, over 100 µM for the second.

Going from `CO[C@@H](Cc1ccccc1)[C@@H](C)/C=C(C)/C=C/[C@H](NC(C)=O)[C@H](C)C(=O)N[C@H](CCC(=O)N(C)CC(=O)N[C@H](C)C(=O)O)C(=O)O` [(R)-2-((4E,6E)-(2S,3S,8S,9S)-3-Acetylamino-9-methoxy-2,6,8-trimethyl-10-phenyl-deca-4,6-dienoylamino)-4-{[((R)-1-carboxy-ethylcarbamoyl)-methyl]-methyl-carbamoyl}-butyric acid] to `CO[C@@H](Cc1ccccc1)[C@@H](C)/C=C(C)/C=C/[C@H](NC(C)=O)[C@H](C)C(=O)N[C@H](CCC(=O)N(C)CC(=O)N[C@H](C)C(=O)N[C@@H](CC(C)C)C(=O)O)C(=O)O` [(S)-2-[(R)-2-(2-{[(R)-4-((4E,6E)-(2S,3S,8S,9S)-3-Acetylamino-9-methoxy-2,6,8-trimethyl-10-phenyl-deca-4,6-dienoylamino)-4-carboxy-butyryl]-methyl-amino}-acetylamino)-1-oxo-propylamino]-4-methyl-pentanoic acid], the IC50 falls from 400 µM to 230 µM (1.7-fold).

For `C=C(C(=O)N[C@H](C)C(=O)N[C@@H](CC(C)C)C(=O)O)N(C)C(=O)CC[C@@H](NC(=O)[C@@H](C)[C@H](/C=C/C(C)=C/[C@H](C)[C@H](Cc1ccccc1)OC)NC(C)=O)C(=O)O` [(S)-2-[(R)-2-(2-{[(R)-4-((4E,6E)-(2S,3S,8S,9S)-3-Acetylamino-9-methoxy-2,6,8-trimethyl-10-phenyl-deca-4,6-dienoylamino)-4-carboxy-butyryl]-methyl-amino}-acryloylamino)-1-oxo-propylamino]-4-methyl-pentanoic acid], the IC50 was 75 µM.
